According to paper PMC12469269, “Investigating SMR Peptide Interactions with Breast Cancer-Associated Proteins” (International Journal of Molecular Sciences, 2025):

Assays:
MDA-MB-231 cells [1] = experiment: Tumor exosome secretion, Mortalin scanning peptides (Figure 5B), MDA-MB-231; type: cell-based, human; conditions: MDA-MB-231 exosome experiment
MDA-MB-231 cells [2] = experiment: as above; type: cell-based, human; conditions: 48 h; for MDA-MB-231 N-Rh-PE (exosome secretion): 50 ng / 200 μL peptide, transfected, N-Rh-PE fluorescence in media, SMRmut = 100, mean of three independent experiments
Procedure: (§1) Figure 5 Effects of Mortalin-derived peptides on inhibition of exNef and tumor exosome secretion. (A) Jurkat T cells were co-transfected with 250 ng of wild-type Nef-GFP plasmid and 50 ng of Mortalin-derived scanning peptides (#56–#67), including SMRwt and SMRmut as positive and negative controls. After 48 h, GFP fluorescence in culture media was measured to assess exNef secretion. Data represent mean ± SD from three independent experiments. Statistical significance was determined using a two-sample t-test assuming equal variances. (B) MDA-MB-231 cells were transfected with 50 ng of Mortalin-derived scanning peptides (#56–#67), including SMRwt and SMRmut controls. Cells were labeled with N-Rh-PE and incubated for 48 h. N-Rh-PE fluorescence in culture media was measured to assess exosome secretion. Data represent mean ± SD from three independent experiments. Statistical significance was determined using a two-sample t-test assuming equal variances. TEXT PRINTED IN THE PICTURE: (A) #56: Jurkat GFP (%): 117.84 (50 ng / 200 μL) | (A) #57: Jurkat GFP (%): 96.69 (50 ng / 200 μL) | (A) #58: Jurkat GFP (%): 91.89 (50 ng / 200 μL) | (A) #59: Jurkat GFP (%): 95.49 (50 ng / 200 μL) | (A) #60: Jurkat GFP (%): 98.25 (50 ng / 200 μL) | (A) #61: Jurkat GFP (%): 0.65 (50 ng / 200 μL) | (A) #62: Jurkat GFP (%): 0.51 (50 ng / 200 μL) | (A) #63: Jurkat GFP (%): 98.02 (50 ng / 200 μL) | (A) #64: Jurkat GFP (%): 95.37 (50 ng / 200 μL) | (A) #65: Jurkat GFP (%): 96.34 (50 ng / 200 μL) | (A) #66: Jurkat GFP (%): 92.28 (50 ng / 200 μL) | (A) #67: Jurkat GFP (%): 99.56 (50 ng / 200 μL) | (A) SMRwt: Jurkat GFP (%): 0.51 (50 ng / 200 μL) | (A) SMRmut: Jurkat GFP (%): 100 (50 ng / 200 μL) | (B) #56: MDA-MB-231 N-Rh-PE (%): 66.31 (50 ng / 200 μL) | (B) #57: MDA-MB-231 N-Rh-PE (%): 79.73 (50 ng / 200 μL) | (B) #58: MDA-MB-231 N-Rh-PE (%): 68.11 (50 ng / 200 μL) | (B) #59: MDA-MB-231 N-Rh-PE (%): 67.81 (50 ng / 200 μL) | (B) #60: MDA-MB-231 N-Rh-PE (%): 72.32 (50 ng / 200 μL) | (B) #61: MDA-MB-231 N-Rh-PE (%): 7.53 (50 ng / 200 μL) | (B) #62: MDA-MB-231 N-Rh-PE (%): 5.36 (50 ng / 200 μL) | (B) #63: MDA-MB-231 N-Rh-PE (%): 75.39 (50 ng / 200 μL) | (B) #64: MDA-MB-231 N-Rh-PE (%): 73.49 (50 ng / 200 μL) | (B) #65: MDA-MB-231 N-Rh-PE (%): 81.65 (50 ng / 200 μL) | (B) #66: MDA-MB-231 N-Rh-PE (%): 81.79 (50 ng / 200 μL) | (B) #67: MDA-MB-231 N-Rh-PE (%): 89.82 (50 ng / 200 μL) | (B) SMRwt: MDA-MB-231 N-Rh-PE (%): 6.11 (50 ng / 200 μL) | (B) SMRmut: MDA-MB-231 N-Rh-PE (%): 100 (50 ng / 200 μL)
To assess the effect of Mortalin-derived peptides on tumor exosome secretion, MDA-MB-231 breast cancer cells were transfected with the same panel of scanning peptides and labeled with N-Rh-PE to track exosome release. Following incubation, N-Rh-PE fluorescence in the culture media was measured as a proxy for extracellular exosome levels. SMRwt and SMRmut peptides were again used as controls. […] Statistical analysis confirmed significant differences: SMRmut vs. #61 (p < 7.20 × 10^−7), SMRmut vs. #62 (p < 5.70 × 10^−7), and SMRmut vs. SMRwt (p < 5.96 × 10^−7).

Jurkat T cells = experiment: exNef secretion, Mortalin scanning peptides (Figure 5A), Jurkat T cells; type: cell-based; conditions: for Jurkat GFP (exNef secretion): 50 ng / 200 μL peptide, 250 ng Nef-GFP plasmid, GFP fluorescence in media, SMRmut = 100, mean of three independent experiments
Procedure: To determine whether Mortalin-derived peptides can inhibit the secretion of extracellular Nef (exNef), Jurkat T cells were co-transfected with wild-type Nef-GFP and various scanning peptides derived from the substrate-binding domain of Mortalin (#56–#67). SMRwt and SMRmut peptides were included as positive and negative controls, respectively. After 48 h of incubation, GFP fluorescence in the culture media was measured as a proxy for exNef secretion.
as §1
To identify peptide sequences within Mortalin that modulate extracellular vesicle (EV) secretion, a panel of scanning peptides was synthesized and tested in Jurkat T cells. The peptides, listed in Table 1, were custom-synthesized with an average purity of 75% and used in transfection assays to evaluate their impact on EV release. Jurkat T cells (3 × 10^5) were co-transfected with 50 ng of individual Mortalin peptides […] 250 ng of wild-type Nef-GFP plasmid using Chariot™ transfection reagent. Transfection efficiency was confirmed by fluorescence microscopy after 48 h. EV secretion was assessed by measuring GFP fluorescence in the culture media, and statistical analysis was performed using unpaired two-factor t-tests (p < 0.05). Panel of Mortalin scanning peptides developed and tested for their effect EV secretion and Table S2. Mortalin Scanning Peptides Used in Transfection Assays, see the Supplementary Information. […]

In the case of “DQLPADECNKLKEEISKMRE [#61, Mortalin scanning peptide 61]”, the cluster formation (MDA-MB-231 cells [1]) was “formed small clusters”, the “MDA-MB-231 N-Rh-PE (exosome secretion)” value (MDA-MB-231 cells [2]) was 7.53% and the “p, SMRmut vs. peptide, exosome secretion” value (MDA-MB-231 cells [2]; two-sample t-test assuming equal variances, 50 ng peptide) was < 7.20 × 10^−7. For the same substance, the “Jurkat GFP (exNef secretion)” value (Jurkat T cells; 48 h) was 0.65%, the “cluster formation / potential peptide aggregation” value (Jurkat T cells; Jurkat exNef experiment) was “formed small clusters” and the “p, SMRmut vs. peptide, exNef secretion” value (Jurkat T cells; two-sample t-test assuming equal variances, 50 ng peptide, 48 h) was < 1.47 × 10^−13.
“^66Ala-Gly-Phe-Pro-Val^70 [SMRmut, 5-mer negative control, Val66 changed to Ala]” was tested, and the “MDA-MB-231 N-Rh-PE (exosome secretion)” value (MDA-MB-231 cells [2]) was 100% and the “Jurkat GFP (exNef secretion)” value (Jurkat T cells; 48 h) was 100%.
